Data as given in US6716851B2, “Substituted 2-aryl-4-arylaminopyrimidines and analogs as activators or caspases and inducers of apoptosis and the use thereof” (Cytovia, Inc., priority 2000, dated 2004).

Assays:
[1] = system: T-47D cells; experiment: Caspase cascade activation (N-(Ac-DEVD)-N'-ethoxycarbonyl-R110 fluorogenic substrate) in T-47D cells; format: cell-based, Human; conditions: 48 h incubation; for EC50: Homo sapiens, T47D, caspase activation potency, read-out: T47 EC50; for T47 Ratio 48 hr: caspase activity: ratio of net RFU of test compound to control
Procedure, shortened: (§1)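 Cells (0.65×10^6/ml) exposed 48 h at 37 °C to compound (0.016-10 μM final), then lysed with 14 μM DEVD-R110 substrate buffer (PIPES pH 7.2, DTT, lysolecithin) for 3 h at room temperature. Net fluorescence (485/530 nm) relative to control; EC50 by sigmoidal dose-response.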

[2] = system: ZR-75-1 cells; experiment: Caspase cascade activation (N-(Ac-DEVD)-N'-ethoxycarbonyl-R110 fluorogenic substrate) in ZR-75-1 cells; format: cell-based, Human; conditions: ZR-75-1, 48 h incubation; for EC50: Homo sapiens, caspase activation potency; for ZR Ratio 48 hr: caspase activity: ratio of net RFU of test compound to control
Procedure, shortened: as §1

| EC50 [1] [µM] | EC50 [2] [µM] | SMILES | T47 Ratio 48 hr [1] | ZR Ratio 48 hr [2] |
| --- | --- | --- | --- | --- |
| 0.802 | 0.583 | COc1ccc(Nc2cc(C(F)(F)F)nc(-c3cccnc3)n2)c(OC)n1 [Example 206, 4-(2,6-Dimethoxypyridin-3-ylamino)-2-(3-pyridinyl)-6-trifluoromethylpyrimidine] | 6.9 | 2.9 |
| 3.11 | 2.78 | FC(F)(F)c1cc(Nc2cccc3[nH]ccc23)nc(-c2ccccn2)n1 [Example 212, 4-(Indol-4-ylamino)-2-(2-pyridinyl)-6-trifluoromethylpyrimidine] | 5.8 | 6.1 |
| 2.69 | 1.77 | Cc1cc2cc(Nc3cc(C(F)(F)F)nc(-c4cccnc4)n3)ccc2[nH]1 [Example 213, 4-(2-Methyl-indol-5-ylamino)-2-(3-pyridinyl)-6-trifluoromethylpyrimidine] | 14.1 | 9.9 |
